Values quoted from earlier work in PMC6595297 (British Journal of Clinical Pharmacology, 2019).

Test system: human P‐gp transport function
Details: cited from earlier work

Structure (SMILES)	Inhibition of P‐gp (classification)
OC(Cn1cncn1)(Cn1cncn1)c1ccc(F)cc1F [fluconazole]	devoid of P‐gp inhibitory effect
CCC(C)n1ncn(-c2ccc(N3CCN(c4ccc(OCC5COC(Cn6cncn6)(c6ccc(Cl)cc6Cl)O5)cc4)CC3)cc2)c1=O (centres unmarked) [itraconazole]	strong dual inhibitor of CYP3A and P‐gp
